What was measured:
[1] = tested on: TNFα synthesis in RAW 264.7 murine macrophages; assay: LPS-induced TNFα synthesis in RAW 264.7 murine macrophages; type: cell-based, mouse; settings: 10 μM; relative to vehicle alone; FIG. 5
Procedure: The mouse macrophage cell line RAW 264.7 was cultured in DMEM supplemented with foetal calf serum (FCS), […] glutamine and 50 U/ml penicillin/streptomycin. Cells were treated with either test compound (in 0.025% DMSO) or vehicle alone, and added one hour before 50 ng/ml LPS. After incubation for 24 h, culture media was collected for PGE2 or TXB2 measurement by ELISA (Cayman Chemical), and TNFα measurement using an ELISA (Becton Dickinson). Test compounds were examined a concentration of 10 μM. […] Consequently, to assess the effect of test compounds on various analytes, cell viability was taken into consideration with the use of the formula: Actual effect of test compound=measured effect−(effect on cell viability×measured effect)

[2] = Free radical scavenging with DPPH; settings: DPPH, 20 minutes, absorbance 517 nm; Table 4; read-out: Free radical scavenging ability EC50
Method in brief: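 Compounds reacted with DPPH in ethanol for 20 min, screened at 100 μM, and absorbance at 517 nm compared with a DPPH-ethanol blank. IC50 was taken as the concentration giving a 0.6 absorbance change, with 1.2 units representing total scavenging.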

[3] = tested on: human umbilical vein smooth muscle cells (HUVSMC); assay: Proliferation of human umbilical vein smooth muscle cells (MTT); type: cell-based; settings: 10 μM; 10% FCS, 5 days; FIG. 8
Procedure: The effect of test compounds on human umbilical vein smooth muscle cells (HUVSMC) was examined. Cells were seeded into 96 well plates at a low seeding rate of 1.6×10^3 cells per well, and allowed to attach for 24 hours. The cells were then washed twice with medium without FCS and incubated in medium without FCS for 20 hours to serum starve them. Analogue was prepared in medium without FCS at 20 μM and added to the plates and incubated for one hour. Final analogue concentration was therefore 10 μM. The cells were then stimulated by adding medium +20% FCS, to give a final FCS concentration of 10%. The cells were incubated until the control cells i.e. those with FCS and no compound, were just confluent (5 days). An MTT assay was performed, and difference in absorbance in analogue treated cells from the control was calculated using the formula: test/control*100−100. Results
The effect of test compounds on human umbilical vein smooth muscle cells (HUVSMC), was examined. Cells, tissue explants from a neonate (HRI—passage 2), were seeded into 96 well plates at 1×10^3 cells per well, and allowed to attach for 24 hours. They were then washed twice and incubated in medium without foetal calf serum (FCS) for 24-48 hours to serum-starve them. Test compounds were prepared in medium without FCS and added to the plates and incubated for one hour. Medium with FCS was added to give a final concentration of 10% and the plates incubated for 4-5 days until the controls were just confluent.

CP70 = assay: Anti-cancer activity, CP70 ovarian cancer cells (MTT); type: cell-based; settings: 120 h, 5 days
HPAC = assay: Anti-cancer activity, HPAC pancreatic cancer cells (MTT); type: cell-based; settings: Homo sapiens, 120 h, 5 days
MM200 = assay: Anti-cancer activity, MM200 melanoma cells (MTT); type: cell-based; settings: 120 h; 5 days, MTT
cancer cell lines = assay: Anti-cancer activity, cancer cell lines tested as a group (MTT); type: cell-based
[4] = tested on: neonatal foreskin fibroblasts (NFF); assay: Toxicity to normal cells, neonatal foreskin fibroblasts; type: cell-based; settings: Fibroblast; normal, non-transformed cells; read-out: IC50 μM, NFF Fibroblast
Procedure: (§1) IC50 values were determined for each cell line. Cells were seeded in 96-well plates at an appropriate cell density as determined from growth kinetics analysis and cultured for 5 days in the absence and presence of the test compounds. Cell proliferation was assessed after the addition of 20 μl of 3-4,5 dimethylthiazol-2,5-diphenyl tetrazolium bromide (MTT, 2.5 mg/ml in PBS, Sigma) for 3-4 hrs at 37° C. according to manufacturer's instructions. IC50 values were calculated from semi-log plots of % of control proliferation on the y-axis against log dose on the x-axis.
(§2) The neonatal foreskin fibroblasts (NFF) were a gift from Dr. Peter Parsons (Queensland Institute of Medical Research). Rabbit kidney (RK-13) cells were obtained from Miller Whalley (Macquarie University). Both cell lines were cultured in RPMI supplemented with 10% FCS(CSL, Australia), penicillin (100 U/ml), streptomycin ([…]), L-glutamine (2 mM) and sodium bicarbonate (1.2 g/L), and cultured at 37° C. in a humidified atmosphere of 5% CO2. IC50 values were determined as described above.

[5] = tested on: Rabbit kidney (RK-13) cells; assay: Toxicity to normal cells, rabbit kidney (RK-13) cells; type: cell-based; settings: Oryctolagus cuniculus, normal, non-transformed cells, read-out: IC50 μM, RK Rabbit Kidney
Procedure: as §1, §2

[6] = target: T1, GAL4-PPARγ fusion protein (Homo sapiens, UniProt P37231); assay: PPARγ activity in transfected HEK293 cells (beta-lactamase reporter); type: cell-based; settings: FIG. 13: 1 μM
T1 construct: host or cells: HEK293 (human embryonic kidney), stably transfected
Method in brief: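 HEK293 cells stably expressing GAL4-DBD/PPARγ-LBD fusion with beta-lactamase reporter, treated with compound at 1, 5 and 10 μM for 16-18 h. Beta-lactamase read via FRET substrate (2 h, room temperature), ex 409 nm, em 460/530 nm; background-subtracted emission ratio.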

HT29 = assay: Anti-cancer activity, HT-29 colon adenocarcinoma cells (MTT); type: cell-based; settings: Homo sapiens, HT-29, 120 h, 5 days, read-out: IC50 μM, HT29 Colorectal
MDA-MB-468 = assay: Anti-cancer activity, MDA-MB-468 breast cancer cells (MTT); type: cell-based; settings: Homo sapiens, MDA-MB-468, 120 h, 5 days
NCI-H460 = assay: Anti-cancer activity, NCI-H460 large cell lung cancer cells (MTT); type: cell-based; settings: Homo sapiens, NCI-H460, 120 h, 5 days, read-out: IC50 μM, NCI-H460 Lung (NSCLC)

T1 sequence (P37231 238-503 limits assumed): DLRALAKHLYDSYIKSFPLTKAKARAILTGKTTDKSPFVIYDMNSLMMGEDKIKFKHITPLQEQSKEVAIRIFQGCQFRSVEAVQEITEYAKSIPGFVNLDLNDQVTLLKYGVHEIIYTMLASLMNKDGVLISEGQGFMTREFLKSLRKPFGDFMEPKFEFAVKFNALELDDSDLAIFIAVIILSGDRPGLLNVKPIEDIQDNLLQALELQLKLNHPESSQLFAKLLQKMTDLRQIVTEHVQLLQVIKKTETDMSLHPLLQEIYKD
T1 sequence (P04386 1-147 partner limits assumed): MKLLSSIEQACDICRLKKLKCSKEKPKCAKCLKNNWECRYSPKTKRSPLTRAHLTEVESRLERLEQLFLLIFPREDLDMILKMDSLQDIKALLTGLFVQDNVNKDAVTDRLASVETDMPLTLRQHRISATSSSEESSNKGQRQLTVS

Row | EC50 [2] [µM] | IC50 (CP70) [µM] | IC50 (HPAC) [µM] | IC50 (MM200) [µM] | IC50 (cancer cell lines; read-out: most potent activity against the respective cell lines tested) [µM] | PPARγ activation, increase in beta-lactamase activity over media only control [6] | IC50 (HT29) [µM] | IC50 (MDA-MB-468) [µM] | IC50 (NCI-H460) [µM] | Compound | mean change of LPS-induced TNFα synthesis [1] | effect on proliferation of HUVSMCs induced by FCS [3] | activity against CP70, HPAC and MM200 cell lines (cancer cell lines; CP70, HPAC and MM200) | IC50 [4] [µM] | IC50 [5] [µM]
1 | 40 | 4.5 | 5.3 | 2.3 | 1 to 5 |  |  |  |  | COCCCN1COc2cc3c(cc2C1)C=C(c1cccc(O)c1)CO3 [Compound 17, 3-(3-(3-Methoxypropyl)-2,3,4,8-tetrahydrochromeno[6,7-e][1,3]oxazin-7-yl)phenol] | greatest inhibition | significantly inhibited the proliferation | active | 55.9 | 5.5
2 | 26 | 10.9 ± 1.5 | 12.4 ± 4 | 23.2 ± 1.1 |  | PPARγ agonist activity | 50.8 ± 1 | 14.9 ± 1 | 17.8 ± 1.1 | CCCN1COc2cc3c(cc2C1)C=C(c1ccc(O)cc1)C(CC)O3 (centres unmarked) [Compound 27, 4-(8-Ethyl-3-propyl-2,3,4,8-tetrahydrochromeno[6,7-e][1,3]oxazin-7-yl)phenol] |  |  |  | 40.3 ± 1.2 | 14.5 ± 1

Reference: patent publication US8367659B2, “Oxazinyl isoflavonoid compounds, medicaments and use” (Marshall Edwards, Inc., priority 2007, dated 2013)
